Measured values reported in patent US20240002936A1, “USE OF BRAIN ORGANOIDS AND SINGLE CELL GENOMICS TO UNDERSTAND AND TREAT NEURODEVELOPMENTAL AND NEUROPSYCHIATRIC DISORDERS” (President and Fellows of Harvard College, priority 2020, published 2024).

Assays:
human brain organoids = format: cell-based
[1] = system: PGP1 SUV420H1 control and mutant organoids; test: Calcium imaging of spontaneous neuronal activity in intact brain organoids; format: cell-based, human; details: 20 μM NBQX

Row | SMILES | trains of action potentials composing network bursting, sensitivity to TTX (human brain organoids) | calcium activity after blockade of excitatory synapses with NBQX, SUV420H1 mutant organoids ([1]; PGP1 SUV420H1+/- mutant organoids) | calcium activity after blockade of excitatory synapses with NBQX, control organoids ([1]; PGP1 control organoids) | network bursting upon bath application of NBQX ([1]; four month organoids (128 d.i.v.))
1 | NC1=N[C@H](O)[C@H]2[C@H]3O[C@]4(O)O[C@@H]([C@@H](O)[C@@]2(N1)[C@@H]4O)[C@]3(O)CO [TTX, tetrodotoxin] | sensitive |  |  | 
2 | NS(=O)(=O)c1cccc2c1c([N+](=O)[O-])cc1[nH]c(=O)c(=O)[nH]c12 [NBQX, 2,3-dioxo-6-nitro-1,2,3,4-tetrahydrobenzo[f]quinoxaline-7-sulfonamide] |  | no calcium transients | residual uncorrelated activity | abolished
